According to publication PMC5981617, “Targeted Delivery of Cell Penetrating Peptide Virus-like Nanoparticles to Skin Cancer Cells” (Scientific Reports, 2018):
Structures can show the parent of a compound that is named as a salt. No end group written: not given here. *: point of attachment. FITC = O=C1OC2(c3ccc(O)cc3Oc3cc(O)ccc32)c2ccc(NC(=S)*)cc21

Tests used:
Type in all cases: cell-based, human
[1] = tested on: A431 cells; assay: Endocytosis inhibitory assay (entry of FITC-peptide, fluorescence microscopy); conditions: 30 min pre-treatment, then FITC-NRPDSAQFWLHH 0.25 mM, 16 h, 37 °C; CPZ 6 µg/mL, MβCD 1.5 mM, Cyt D 10 µg/mL, genistein 200 µM
Experimental: Four endocytosis inhibitors [Cyt D (10 µg/mL; Calbiochem, San Diego, California, USA), CPZ (6 µg/mL; Santa Cruz Biotechnology, Dallas, Texas, USA), MβCD (1.5 mM; Sigma Aldrich, St. Louis, Missouri, USA) and genistein (200 µM; Calbiochem, San Diego, California, USA)] were used to study the energy-dependent endocytosis of peptide […] into A431 cells. The cells (200,000 cells/well) were seeded onto sterile glass coverslips which had been placed in a six-well plate, and incubated at 37 °C for overnight. The medium was then removed and the cells were pretreated with the inhibitors at 37 °C for 30 min. After the pretreatment with inhibitors, FITC-[…] (0.25 mM) was added to the cells and incubated for 16 h at 37 °C in the presence of inhibitors. After removing the medium, the cells were washed, fixed and stained with Hoechst 33342. The cells were mounted onto a glass slide and examined under a fluorescence microscope.

[2] = tested on: A431 cells; assay: MTT assay, cell viability in the presence of endocytosis inhibitors; conditions: Cyt D 10 µg/mL, genistein 200 µM, CPZ 6 µg/mL, MβCD 1.5 mM, n = 3
[3] = tested on: NHDF cells; assay: Internalisation of FITC-labelled peptide, fluorescence microscopy; conditions: 0.25 mM, 37 °C, 16 h
Experimental: (§1) The selective internalisation property of peptide […] was tested on NHDF and A431 cells. These cells (200,000 cells/well) were seeded separately onto sterile glass coverslips which had been placed in a six-well plate, and incubated overnight at 37 °C. After changing the medium, the cells were added with FITC-conjugated peptide (FITC-[…]; 0.25 mM; Mimotopes Pty Ltd, Clayton, Victoria, Australia), and incubated for 16 h at 37 °C. The cells were then washed 3 times with PBS and fixed with paraformaldehyde [3.7% (w/v)]. Hoechst 33342 was added and incubated for 10 min to stain the cell nuclei. The cells were mounted onto a glass slide and observed under a fluorescence microscope.

[4] = tested on: HT29 cells; assay: Internalisation of FITC-labelled peptide in cell line with lower EGFr expression; conditions: 0.25 mM, 37 °C, 16 h; HT29 9 × 10^3 EGFr/cell; fluorescence microscopy
Experimental: (§2) A431 and HT29 cell lines (200,000 cells/well) were seeded onto sterile glass coverslips in a six-well plate and incubated overnight at 37 °C. After changing the medium, peptide FITC-[…] (0.25 mM) was added to the cell lines and incubated at 37 °C for 16 h in a CO2 incubator. The cells were then washed, fixed, stained with Hoechst 33342, and viewed under a fluorescence microscope. The amount of phage internalised into A431 and HT29 cells (1 × 10^6 cells) which had been incubated with the purified phage (1 × 10^12 pfu) at 37 °C for 12 h was measured with the phage titration assay as described above.

[5] = tested on: A431 cells; assay: Internalisation of FITC-labelled peptide, fluorescence microscopy; conditions: 0.25 mM, 37 °C, 16 h
Experimental: as §1, §2

Molecule | Effect of endocytosis inhibitor on internalisation of peptide NRPDSAQFWLHH (green granular appearance) [1] | Viability of A431 cells in the presence of inhibitor [2] | Internalisation of FITC-labelled peptide into NHDF cells [3] | Internalisation of FITC-labelled peptide into HT29 cells [4] | Internalisation of FITC-labelled peptide into A431 cells [5]
C=C1[C@@H](C)[C@H]2[C@H](Cc3ccccc3)NC(=O)[C@]23[C@H](OC(C)=O)/C=C/[C@@](C)(O)C(=O)[C@@H](C)C/C=C/[C@H]3[C@@H]1O [Cyt D, cytochalasin D] | did not inhibit internalisation | over 83% | – | – | –
methyl-β-cyclodextrin [MβCD] | reduced drastically | over 83% | – | – | –
O=c1c(-c2ccc(O)cc2)coc2cc(O)cc(O)c12 [genistein] | did not inhibit internalisation | over 83% | – | – | –
{FITC}-NRPDSAQFWLHH | – | – | no significant fluorescent signal was observed | no significant green fluorescent granules were observed | taken up efficiently
CN(C)CCCN1c2ccccc2Sc2ccc(Cl)cc21 [CPZ, chlorpromazine hydrochloride] | reduced drastically | over 83% | – | – | –
